Experimental data from patent publication US7592326B2, “Method for stimulating the immune, inflammatory or neuroprotective response” (priority 2004, dated 2009).

Columns and labels:
human basophils = assay: IL-3 dependent IL-13 secretion by human basophils; format: cell-based; settings: under the conditions tested
Lethality in CD1 mice = settings: 50 μl of 200 μM, after 24 h
ERK = assay: Western blot signaling in human DCs: ERK; format: cell-based; settings: data not shown
Method: Human PBMC were isolated by Ficoll density gradient centrifugation from leukopacks supplied by the Department of Transfusion Medicine (Clinical Center, National Institute of Health, Bethesda, Md.). Monocytes were purified (>95%) from human PBMC with MACS CD14 monocyte isolation kit (Miltenyi Biotech Inc., Auburn, Calif.) according to the manufacturer's instruction. DCs were generated as described previously (Yang et al., 2001). In brief, DCs were generated by incubating purified monocytes at 2×10^5/ml in RPMI 1640 containing 10% FBS, 2 mM glutamine, 25 mM HEPES, 100 U/ml penicillin, 100 ug/ml streptomycin, 50 ng/ml recombinant human GM-CSF (PeproTech, Rocky Hill, N.J.), and 50 ng/ml recombinant human IL-4 (PeproTech) at 37° C. in a CO2 (5%) incubator for 7 days. On day 3 and 5 of the incubation, half of the culture medium was replaced with pre-warmed (37° C.) fresh GM-CSF- and IL-4-containing medium. On day 7, DCs were collected, washed three times with PBS, and serum-starved for 8 hours by incubating in serum-free RPMI-1640 containing GM-CSF and IL-4 (2×10^5/ml) at 37° C. in a CO2 (5%) incubator. Subsequently, DCs (2×10^6/sample) were incubated at 37° C. in the absence or presence of c-di-GMP or GMP (Sigma, St. Louis, Mo.) at concentrations specified for 5 or 30 minutes. […]

human DCs = assay: Cytokine, chemokine and chemokine receptor expression in c-di-GMP-induced DC maturation (QPCR); format: cell-based
Method: Buffy coats were obtained from healthy human volunteers and fractionated over Histopaque-1077. The peripheral blood mononuclear cells (PBMC) layer was recovered and erythrocyte-depleted by incubation in red blood cell lysis buffer for 5 minutes at room temperature. PBMCs were cultured in complete medium (RPMI 1640, 1% L-glutamine, 1% penicillin/streptomycin, and 10% low endotoxin FCS) for 2 hours in T75 flasks (Corning). Following incubation, nonadherent cells were removed by three washes with 1× PBS (Invitrogen, Carlsbad, Calif.). The remaining adherent cells were then cultured in complete medium supplemented with GM-CSF and IL-4 (50 ng/mL each). Human and murine IL-4 and GM-CSF were purchased from Peprotech (Rocky Hill, N.J.). On day 2 and day 4, the DC cultures received an additional dose of GM-CSF and IL-4 (50 ng/mL each). On day 5, non-adherent DC were harvested by gentle pipetting, counted, and plated in fresh medium containing GM-CSF and IL-4 (50 ng/mL each). On Day 6, some DC were matured by addition of 100 ng/ml LPS or 10-400 μM c-di-GMP for 1-24 hours.
Surface expression of various markers was assessed using CellQuest analysis software on a FACScalibur (Becton-Dickinson) flow cytometer. Surface expression was determined using the following FITC- and PE-conjugated antibodies: CD86-FITC (Research Diagnostics), CCR7-PE (R&D Systems), CD80-FITC, CD83-FITC, HLA-DR-FITC (BD Pharmingen). The isotype control antibodies were used accordingly in all experiments and were purchased from Pharmingen. Human DC were incubated in 1% human AB serum/PBS and were incubated with rat anti-CD16/CD32 (BD Phamingen) to block non-specific binding. Total RNA was extracted using the RNeasy kit according to the manufacturer's protocol (Qiagen). Briefly, after DNase I (Invitrogen) treatment, 1 μg of total RNA from each sample was used as template for the reverse transcription reaction. 50 ul of cDNA was synthesized using Oligo(dT)15, random hexamers, and multiscribe reverse transcriptase (Applied Biosystems). All samples were reverse transcribed under the same conditions (25° C. for 10 minutes, 48° C. for 30 minutes) and from the same reverse transcription master mix in order to minimize differences in reverse transcription efficiency. All oligonucleotide primers for QPCR were designed using Primer Express software 1.0 (PE Biosystems) and synthesized by Invitrogen. The 25 ul QPCR reaction contains 2 ul of cDNA, 12.5 ul of 2× SYBR Green master mix (Stratagene), and […] of sense and anti-sense primer. The reaction conditions were as follows: 50° C. for 2 minutes, 95° C. for 10 minutes then 40 cycles of 95° C. for 15 seconds and 60° C. for 1 minute. Emitted fluorescence for each reaction was measured during the annealing/extension phase, and amplification plots were analyzed using the MX4000 software version 3.0 (Stratagene). Quantity values (i.e., copies) for gene expression were generated by comparison of the fluorescence generated by each sample with standard curves of known quantities. Next, the calculated number of copies was divided by the number of copies of the housekeeping gene GAPDH.

[1] = pH 10

In the case of `Nc1nc(=O)c2ncn([C@@H]3OC4COP(=O)(O)O[C@H]5[C@@H](O)[C@H](n6cnc7c(=O)nc(N)[nH]c76)O[C@@H]5COP(=O)(O)OC4C3O)c2[nH]1` (some centres unmarked) [c-di-GMP, Bis(3′→5′)-cyclic diguanylic acid], the “effect on IL-13 induced by IL-3” value (human basophils) is reported as “essentially no inhibition”, the “lethality in CD1 mice” value (Lethality in CD1 mice) is reported as “non-lethal” and the “activation of ERK” value (ERK) is reported as “did not activate”. For the same molecule, the “mRNA expression of chemokines IL-8/CXCL8, MIG/CXCL9, IP-10/CXCL10, I-TAC/CXCL11, MCP-1/CCL2, MIP-1a/CCL3, MIP-1b/CCL4, RANTES/CCL5” value (human DCs; 200 uM, 1-24 hours) was “increased”, the “mRNA expression of IFN-a, IL-1b, TNF, IFN-g and IL-12 p40” value (human DCs; 200 uM, FIG. 11A) was “stimulated” and the “IL-8 and IP-10 protein production (ELISA of supernatants)” value (human DCs; 24 hours, data not shown) was “consistent with the mRNA results”. The “expression of CXCR4 and CCR7” value (human DCs; FIG. 11C) was “upregulated”, the “expression of chemokine receptors CCR1 and CCR5” value (human DCs; FIG. 11C) was “downregulated” and the “induction of Th2 cytokines (IL-4, IL-5, IL-10, IL-13)” value (human DCs; human DCs) was “No evidence for the induction”. The “time of TNF-a peak following treatment” value (human DCs; returns to basal level after 24 hours) was 3 h and the “stability at physiological conditions” value [1] was “stable”.
